Where “and” joins values, the source holds several entries; their conditions need not be identical. Equal entries are not always repeated. Starred links: 1 amine or outer side, 2 acyl side, 3 side chain; linkers in the order of their positions; H or OH if unused. Non-standard residues stand in square brackets, D forms with d. Residues, ends and D or L forms follow the SMILES beside them. *: point of attachment. hPhe = N[C@@H](CCc1ccccc1)C(=O)O; Morpholide = C1CN(*)CCO1; CO = O=C([*:1])[*:2]; CH2F = FC*
Key:
cathepsin B = cathepsin B (Rattus norvegicus, UniProt P00787); assay: Cathepsin B activity in homogenates of liver lobes of rats after oral FMK treatment; format: in vivo; settings: 20 mg FMK per kg body weight daily, 14 days, all four lobes
Chain of cathepsin B (P00787 80-333): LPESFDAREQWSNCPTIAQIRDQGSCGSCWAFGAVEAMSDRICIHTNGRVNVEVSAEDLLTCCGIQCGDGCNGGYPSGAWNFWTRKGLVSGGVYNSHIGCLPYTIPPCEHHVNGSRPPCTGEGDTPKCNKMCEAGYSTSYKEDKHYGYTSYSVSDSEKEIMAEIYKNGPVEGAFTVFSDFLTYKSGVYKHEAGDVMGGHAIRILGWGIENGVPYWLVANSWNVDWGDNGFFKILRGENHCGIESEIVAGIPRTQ
Method: (§1) Sixteen rats were treated orally with 20 mg FMK per kg body weight dissolved in PBS and 5% dimethylformamide daily for 14 days starting one week before administration of the CC531 cells and continuing until sacrifice. Oral administration was performed directly into the stomach with a plastic tube attached to a syringe. Dosage and type of treatment were selected on the basis of previous experiments in which rats were treated with FMK-related inhibitors of cathepsins (34,40,53). The other 16 animals were treated similarly with PBS and dimethylformamide only. The LD50 of this type of FMK is at least 20-fold higher than the dosages used in the present experiment (40,53).
Cathepsin B activity was determined in homogenates obtained from each individual liver lobe of all rats according to Cox and Eley (56) with the use of the fluorogenic substrate CBZ-Ala-Arg-Arg-7-amino-4-trifluoromethylcoumarin (Enzyme Systems Products, Dublin, Calif.).
Whether or not the two weeks of oral treatment with the inhibitor had the same effect on cathepsin B activity in all liver lobes was determined.

[1] = cited from earlier work
CC531 colon cancer cells = assay: Colon cancer (CC531) metastasis in rat liver: number and volume of tumors per lobe; format: in vivo
Method: Induction of Metastasis in Rat Liver
Colon carcinoma tumors were induced in rat liver by injection of a single cell suspension containing 1×10^6 CC531 cells into the portal vein of 32 mature male WAG-Rij rats, weighing 180-200 g (Broekman, Someren, The Netherlands) as described previously in detail (46,51,52).
Treatment of Rats with FMK
as §1
Preparation of Cryostat Sections of Liver
Seven days after administration of CC531 cells, the animals were weighed and sacrificed with an overdose of sodium pentobarbital. Livers were removed immediately, the individual lobes were weighed and dissected and cut into small pieces (up to 5 mm thick) according to a rigid dissection scheme. The left lateral lobe was cut into eight pieces, the median lobe into nine pieces, the right lateral and caudate lobes into four pieces. Tissue fragments were frozen in liquid nitrogen and the material was kept at -80° C. until further use. Twenty-one sites were randomly selected in all lobes of each liver before the experiments were carried out. From these sites, sections (8 μm thick) were cut on a motor-drivencryostat with a rotary retracting microtome (Bright, Huntingdon, UK) at a constant but low speed and a cabinet temperature of -25° C. Sections were picked up onto clean glass slides and stored in the cryostat cabinet until used. These methods have been described in detail in Reference 54.
Staining of Tissue Sections
To facilitate recognition of cancer cells, cryostat sections were stained either with the periodic acid Schiff (PAS) reaction (54) or immunohistochemically using the lectin Ulex europaeus agglutinin I (Dako, Glostrup, Denmark), a selective marker of CC531 cells in rat (51,55). Immunocompetenet cells, endothelial cells and components of the extracellular matrix were localized with a panel of antibodies (Table 1) as described in detail by Griffini et al. (52). Control incubations were performed by replacing the first antibodies by non-immune sera in the same dilutions.
For calculation of the number and percentage volume of tumors in each liver lobe, the 8 micron thick sections were analyzed morphometrically using a Quantimet Q500 (Leica, Cambridge, UK) after staining with the lectin Ulex for the detection of cancer cells. The number of tumors was expressed per unit volume of liver tissue ±standard error of the mean or as ratio of the number of tumors in FMK-treated rats and those in untreated rats (×100). The percentage volume of tumors was expressed as the ratio of the volume of tumors and the total volume of the liver tissue including tumors ±standard error of the mean. Statistical analysis was performed with the 2-tailed Mann-Whitney test using the software program JPM (SAS Institute, Cary, N.C.).
The number of tumors is expressed per unit volume of liver tissue ± SEM or as the ratio of the number of tumors in treated rats compared with untreated rats (×100; %) as determined morphometrically in 8 μm thick cryostat sections stained with the lectin Ulex europaeus agglutinin I. Differences in number of tumors in left lateral and median lobes but not in right lateral and caudate lobes between treated and untreated animals were significant (P=0.006 and P=0.1, respectively). […]

[2] = Body weight and liver weight of FMK-treated rats; format: in vivo, rat; settings: 20 mg FMK/kg daily oral 14 days
Method: as §1
Seven days after administration of CC531 cells, the animals were weighed and sacrificed with an overdose of sodium pentobarbital. Livers were removed immediately, the individual lobes were weighed and dissected and cut into small pieces (up to 5 mm thick) according to a rigid dissection scheme. The left lateral lobe was cut into eight pieces, the median lobe into nine pieces, the right lateral and caudate lobes into four pieces. […]
Significant differences between the caudate lobe and the other liver lobes with respect to the endothelial compartment or distribution patterns of extracellular matrix compounds (see Table 1 for specification of parameters investigated) could not be detected either.

[3] = 20 mg FMK/kg daily oral 14 days
[4] = +FMK, 20 mg/kg daily oral 14 days, ± SEM, n = 16
[5] = weighted by relative lobe wet weight

## O=C(CF)[C@H](CCc1ccccc1)NC(=O)[C@H](Cc1ccccc1)NC(=O)N1CCOCC1 [FMK, Mu-Phe-homoPhe-fluoro-methylketone] ({Morpholide-CO}-Phe-[hPhe]-CH2F)
Cathepsin B
  inhibition of cathepsin B activity in liver lobes: ~50% and 51±14%
[1]
  toxicity: non-toxic
[1]; this type of FMK
  LD50 relative to the dosages used (20 mg/kg): at least 20 fold
CC531 colon cancer cells; [3]
  ratio of number of tumors in treated vs untreated rats (×100), caudate lobe: 278%
  ratio of number of tumors in treated vs untreated rats (×100), left lateral lobe: 24%
  ratio of number of tumors in treated vs untreated rats (×100), median lobe: 24%
  ratio of number of tumors in treated vs untreated rats (×100), right lateral lobe: 91%
  ratio of percentage volumes in treated and untreated rats (×100), caudate lobe: 283%
  ratio of percentage volumes in treated and untreated rats (×100), left lateral lobe: 17%
  ratio of percentage volumes in treated and untreated rats (×100), median lobe: 3%
  ratio of percentage volumes in treated and untreated rats (×100), right lateral lobe: 35%
CC531 colon cancer cells; 20 mg FMK/kg per day
  average size of tumors in large lobes, treated relative to untreated: 40%
  effect on number of tumors in the caudate lobe: increased rather than decreased, although the difference was not significant
  effect on size of tumors in the caudate lobe: not affected
  number of tumors per unit volume in caudate lobe vs other lobes in treated rats: 20 fold
  reduction of total volume of tumors in the large lobes (average): 80%
CC531 colon cancer cells; 20 mg FMK/kg per day, one week before until one week after cells
  reduction of number of tumors in the large lobes (average): 60%
CC531 colon cancer cells; [4]
  number of tumors, caudate lobe: 14.2 ± 7.5 per unit volume of liver tissu
  number of tumors, left lateral lobe: 0.5 ± 0.2 per unit volume of liver tissu
  number of tumors, median lobe: 0.4 ± 0.2 per unit volume of liver tissu
  number of tumors, right lateral lobe: 1.0 ± 0.4 per unit volume of liver tissu
  percentage volume of tumors, caudate lobe: 49.8 ± 38.5%
  percentage volume of tumors, left lateral lobe: 1.4 ± 0.5%
  percentage volume of tumors, median lobe: 0.3 ± 0.6%
  percentage volume of tumors, right lateral lobe: 1.1 ± 0.2%
CC531 colon cancer cells; in vivo treatment with FMK
  effect on number or size of metastases, caudate lobe: does not reduce number or size of metastases
CC531 colon cancer cells; [5]
  reduction of mean number of tumors in the entire liver: 35%
  reduction of mean volume of tumors in the entire liver: 57%
[2]
  effect on body weight, total liver weight or weight of individual lobes: did not affect body weight, total liver weight or the weight of the individual lobes

Source: US6235493A, “Amino acid substituted-cresyl violet, synthetic fluorogenic substrates for the analysis of agents in individual in vivo cells or tissue” (priority 1998, dated 2001)
